Laboratory results published in patent US20240228411A1, “Functionalization of Lightly Branched Olefin Oligomers” (ExxonMobil Chemical Patents Inc., priority 2021, published 2024).
Where a name gives a salt, the structure may show the parent alone.

Experiments:
Assay type in all cases: physicochemical
[1] = Wetting time, skein test; conditions: average of three measurements; for Wetting time (1 g/L): 1 g/L surfactant; for Wetting time (2 g/L): 2 g/L surfactant
Method: Wetting time was measured by heating an aqueous mixture of the surfactant in an oven for 15-20 minutes at 50-60° C. and homogenizing regularly. 1+/−0.1 g or 2+/−0.1 g of the surfactant was weighed into a 1 L volumetric flask, and distilled water was added by portions of 200-300 mL and agitating regularly. After the resulting foam disappeared, the volume was adjusted to the 1 liter level. Skein yams were removed from their packaging and hung for a period of time before measurement. The surfactant solution was poured into a graduated cylinder (1 L), and foam was removed with a small nitrogen or air flow. The skein was folded one time. A hook was fastened with its anchor at one end of the folded skein, and at the opposite end, the skein was cut through. The cut skein was then compacted. The skein was held with the anchor and the weight above the 1-liter graduated cylinder containing the surfactant solution. A stopwatch was activated just as the skein was released into the surfactant solution. The stopwatch was stopped once the skein started to sink. The average of three measurements using fresh surfactant solution and a new skein each time is reported. Wetting results are specified in Table 5 below.

[2] = Critical micelle concentration in water, Kruss K100 tensiometer
Method: Critical micelle concentrations in water were measured using an A Kruss Laboratory K100 tensiometer. CMC values were determined using the K100 instrument's fully automated measurement method, as described further in the K100 instrument's operating manual.

[3] = Calcium tolerance (hard water tolerance), surfactant remaining in filtrate by HPLC-ELSD; conditions: 25° C., 450 ppm surfactant, 420 ppm cations (3:1 Ca2+:Mg2+), overnight
Method: Calcium tolerance was measured at 25° C. using the following procedure. A surfactant solution containing 450 ppm of alcohol sulfate surfactant and 420 ppm cations (3:1 Ca^2+:Mg^2+) was prepared and allowed to stand overnight. Crystals formed during this time. The supernatant liquid was removed and passed through a 0.22 μm filter to provide a filtrate. The filtrate was then analyzed for surfactant residue. Analysis of the surfactant and salt residue was performed using an Agilent 1100 HPLC combined with SEDEX 75 evaporative light scattering detector (ELSD) using the run conditions specified in Table 4 below. Peak height was utilized to analyze surfactant concentration. Some samples were repeated in triplicate. Calcium tolerance results are specified in Table 5 below.

[4] = Solubility in water at 25° C., visual observation; conditions: 2-3 hours magnetic stirring
Method: Solubility measurements were conducted in water at 25° C. Solubility was determined through visual observation after 2-3 hours of magnetic stirring of surfactant solutions having variable concentrations.

Structure (SMILES)	Wetting time (1 g/L) [1] [s]	Wetting time (2 g/L) [1] [s]	CMC [2] [g/g]	Calcium tolerance (ppm surfactant remaining) [3] [ppm]	Solubility at 25° C. [4] [% Wt. %]
CCCC(C)CCCC(C)CCCOS(=O)(=O)O (centres unmarked) [Isotridecyl Sulfate-2, C# = 13, 4,8-dimethylundecan-1-sulfate]	6.1	2.3	0.00129	–	–
CCCCCCCCCCCCCOS(=O)(=O)[O-].[Na+] [Sodium n-Tridecyl Sulfate]	6.3	3.1	0.001	11.2	<0.5
